Experimental data taken from PubChem BioAssay AID1963443 (Molecular Pharmacology Branch, DTP, NCI, 2024).
Values joined by “and” are separate entries in the source; they are usually repeats but may differ in a detail not shown here. Equal values may be shown once.

System: MDA-MB-231 complex spheroids, growth inhibition
Assay: Anticancer human tumor MDA-MB-231 cell line growth inhibition [Asc];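 also: spheroids exposed to compounds for 7 days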
Settings: for viability, T/C: stronger effect = lower value
Summary of the method: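 Stromal components (HUVEC and hMSC) are co-assembled with the cancer cells into multicellular spheroids. Drugs are then added singly or paired, at concentrations falling by half-log increments from a clinically achievable maximum, capped at 10 microM without known Cmax.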

For `CCN1CCN(Cc2ccc(Nc3ncc(F)c(-c4cc(F)c5nc(C)n(C(C)C)c5c4)n3)nc2)CC1` + CCN1C(C(=O)NC23CCC(C(=O)O)(CC2)CC3)C(c2cccc(Cl)c2F)C2(C(=O)Nc3cc(Cl)ccc32)C12CCCCC2, the IC50 (curve of first compound, second compound 0.03 µM) was 0.305 µM, the IC50 (curve of first compound, second compound 0.0949 µM) was 0.479 µM and the IC50 (curve of first compound, second compound 0.3 µM) was > 1 µM. For the same compound, the IC50 (curve of first compound, second compound 0.949 µM) was > 1 µM, the IC50 (curve of first compound, second compound 3 µM) was > 1 µM and the viability, T/C (second compound 0.03 µM, first compound 0.00316 µM) was 102%. For the same compound, the viability, T/C (second compound 0.03 µM, first compound 0.01 µM) was 94.3%, the viability, T/C (second compound 0.03 µM, first compound 0.0316 µM) was 76.6% and the viability, T/C (second compound 0.03 µM, first compound 0.1 µM) was 59%. It also gave a viability, T/C (second compound 0.03 µM, first compound 0.316 µM) of 49.8%, a viability, T/C (second compound 0.03 µM, first compound 1 µM) of 46.6% and a viability, T/C (second compound 0.0949 µM, first compound 0.00316 µM) of 109%. It also gave a viability, T/C (second compound 0.0949 µM, first compound 0.01 µM) of 98.8%, a viability, T/C (second compound 0.0949 µM, first compound 0.0316 µM) of 79.7% and a viability, T/C (second compound 0.0949 µM, first compound 0.1 µM) of 61.8%. It also gave a viability, T/C (second compound 0.0949 µM, first compound 0.316 µM) of 50.5%, a viability, T/C (second compound 0.0949 µM, first compound 1 µM) of 48.1% and a viability, T/C (second compound 0.3 µM, first compound 0.00316 µM) of 103%. For the same compound, the viability, T/C (second compound 0.3 µM, first compound 0.01 µM) was 99.9%, the viability, T/C (second compound 0.3 µM, first compound 0.0316 µM) was 86.9% and the viability, T/C (second compound 0.3 µM, first compound 0.1 µM) was 67%. The viability, T/C (second compound 0.3 µM, first compound 0.316 µM) was 55%, the viability, T/C (second compound 0.3 µM, first compound 1 µM) was 52.7% and the viability, T/C (second compound 0.949 µM, first compound 0.00316 µM) was 105%. For the same compound, the viability, T/C (second compound 0.949 µM, first compound 0.01 µM) was 101%, the viability, T/C (second compound 0.949 µM, first compound 0.0316 µM) was 85.5% and the viability, T/C (second compound 0.949 µM, first compound 0.1 µM) was 67.2%. It also gave a viability, T/C (second compound 0.949 µM, first compound 0.316 µM) of 52.8%, a viability, T/C (second compound 0.949 µM, first compound 1 µM) of 53% and a viability, T/C (second compound 3 µM, first compound 0.00316 µM) of 94.8%. For the same compound, the viability, T/C (second compound 3 µM, first compound 0.01 µM) was 86.6%, the viability, T/C (second compound 3 µM, first compound 0.0316 µM) was 73.6% and the viability, T/C (second compound 3 µM, first compound 0.1 µM) was 54.5%. The viability, T/C (second compound 3 µM, first compound 0.316 µM) was 49.1% and the viability, T/C (second compound 3 µM, first compound 1 µM) was 52.6%.
For `Cc1nc(N2CCC3(CC2)COC(C)C3N)c(CO)nc1Sc1ccnc(N)c1Cl` (stereo unspecified) + CNC(C)C(=O)NC1CN(S(=O)(=O)c2cccc(S(=O)(=O)N3CCC4CCC(C(=O)NC(c5ccccc5)c5ccccc5)N4C(=O)C(NC(=O)C(C)NC)C3)c2)CCC2CCC(C(=O)NC(c3ccccc3)c3ccccc3)N2C1=O, the IC50 (curve of first compound, second compound 0.00316 µM) was < 0.00949 µM, the IC50 (curve of first compound, second compound 0.01 µM) was < 0.00949 µM and the IC50 (curve of first compound, second compound 0.0316 µM) was < 0.00949 µM. The IC50 (curve of first compound, second compound 0.1 µM) was < 0.00949 µM, the IC50 (curve of first compound, second compound 0.316 µM) was 0.496 µM and the IC50 (curve of first compound, second compound 1 µM) was 0.487 µM. The viability, T/C (second compound 0.00316 µM, first compound 0.00949 µM) was 6.2%, the viability, T/C (second compound 0.00316 µM, first compound 0.03 µM) was 3.59% and the viability, T/C (second compound 0.00316 µM, first compound 0.0949 µM) was 3.91%. For the same compound, the viability, T/C (second compound 0.00316 µM, first compound 0.3 µM) was 2.35%, the viability, T/C (second compound 0.00316 µM, first compound 0.949 µM) was 1.9% and the viability, T/C (second compound 0.00316 µM, first compound 3 µM) was 0.75%. For the same compound, the viability, T/C (second compound 0.01 µM, first compound 0.00949 µM) was 3.06%, the viability, T/C (second compound 0.01 µM, first compound 0.03 µM) was 1.64% and the viability, T/C (second compound 0.01 µM, first compound 0.0949 µM) was 2.31%. For the same compound, the viability, T/C (second compound 0.01 µM, first compound 0.3 µM) was 2.09%, the viability, T/C (second compound 0.01 µM, first compound 0.949 µM) was 1.16% and the viability, T/C (second compound 0.01 µM, first compound 3 µM) was 1.06%. It also gave a viability, T/C (second compound 0.0316 µM, first compound 0.00949 µM) of 1.57%, a viability, T/C (second compound 0.0316 µM, first compound 0.03 µM) of 2.27% and a viability, T/C (second compound 0.0316 µM, first compound 0.0949 µM) of 1.35%. For the same compound, the viability, T/C (second compound 0.0316 µM, first compound 0.3 µM) was 1%, the viability, T/C (second compound 0.0316 µM, first compound 0.949 µM) was 2.18% and the viability, T/C (second compound 0.0316 µM, first compound 3 µM) was 1.27%. For the same compound, the viability, T/C (second compound 0.1 µM, first compound 0.00949 µM) was 1.75%, the viability, T/C (second compound 0.1 µM, first compound 0.03 µM) was 1.36% and the viability, T/C (second compound 0.1 µM, first compound 0.0949 µM) was 0.97%. It also gave a viability, T/C (second compound 0.1 µM, first compound 0.3 µM) of 0.62%, a viability, T/C (second compound 0.1 µM, first compound 0.949 µM) of 1.23% and a viability, T/C (second compound 0.1 µM, first compound 3 µM) of 1.82%. For the same compound, the viability, T/C (second compound 0.316 µM, first compound 0.00949 µM) was 108%, the viability, T/C (second compound 0.316 µM, first compound 0.03 µM) was 101% and the viability, T/C (second compound 0.316 µM, first compound 0.0949 µM) was 108%. The viability, T/C (second compound 0.316 µM, first compound 0.3 µM) was 86.6%, the viability, T/C (second compound 0.316 µM, first compound 0.949 µM) was 2.83% and the viability, T/C (second compound 0.316 µM, first compound 3 µM) was 0.94%. It also gave a viability, T/C (second compound 1 µM, first compound 0.00949 µM) of 99.5%, a viability, T/C (second compound 1 µM, first compound 0.03 µM) of 113% and a viability, T/C (second compound 1 µM, first compound 0.0949 µM) of 99.9%. It also gave a viability, T/C (second compound 1 µM, first compound 0.3 µM) of 83.4%, a viability, T/C (second compound 1 µM, first compound 0.949 µM) of 3.91% and a viability, T/C (second compound 1 µM, first compound 3 µM) of 0.93%.
`CCN1CCN(Cc2ccc(Nc3ncc(F)c(-c4cc(F)c5nc(C)n(C(C)C)c5c4)n3)nc2)CC1` was tested, and the viability, T/C (compound 0.00316 µM) was 91.9% and 79.5% and 77%, the viability, T/C (compound 0.01 µM) was 92.6% and 86.9% and 80% and the viability, T/C (compound 0.0316 µM) was 78.5% and 79.9% and 88.6%. The viability, T/C (compound 0.1 µM) was 64.9% and 54.5% and 74.4%, the viability, T/C (compound 0.316 µM) was 51.7% and 48% and 64.4% and the viability, T/C (compound 1 µM) was 50.2% and 48.8% and 72%. For the same compound, the IC50 (curve of compound) was 0.882 µM and 0.238 µM and > 1 µM.
With `NC(=O)C(=Cn1cnc(-c2cc(C(F)(F)F)cc(C(F)(F)F)c2)n1)c1cncnc1` the viability, T/C (compound 0.000949 µM) was 95.7% and 87.8% and 73.5%, the viability, T/C (compound 0.003 µM) was 92.4% and 95.1% and 81.3% and the viability, T/C (compound 0.00949 µM) was 84.7% and 87.1% and 84.5%. The viability, T/C (compound 0.03 µM) was 57.8% and 56.5% and 60.4%, the viability, T/C (compound 0.0949 µM) was 50.5% and 47% and 48.1% and the viability, T/C (compound 0.3 µM) was 14.4% and 21.2% and 21.8%. The IC50 (curve of compound) was 0.0724 µM and 0.0615 µM and 0.0749 µM.
